Reference: article PMC11862611 (RSC Medicinal Chemistry, 2025)

Tests used:
[1] = molecular target: T1, H1 (h) (antagonist radioligand) (Homo sapiens, UniProt P35367); experiment: radioligand displacement assay, H1; format: binding
T1 construct: purchased Eurofins (contract assay); host or cells: cell membrane homogenates
Procedure: (§1) 4.2.3.6. Radioligand Binding Assay (Supplemental Figure S3)
(§2) These assays were run by Eurofins under contract to LifeArc FR095-0011887. A representative protocol describing the human histamine H2 receptor (antagonist radioligand) assay is shown below.12 Cell membrane homogenates (24 µg protein) are incubated for 120 min at 22°C with 0.075 nM [125I]APT in the absence or presence of the test compound in a buffer containing 50 mM Na2HPO4/KH2PO4 (pH […]
(§3) 7.4) and 0.05% BSA. […] Following

[2] = test system: L. major ΔLCB2 promastigotes; format: cell-based, Leishmania major; settings: EC50 WT versus ΔLCB2 L. major promastigotes
Procedure: L. major promastigotes (FV1) WT, PX and Δ LCB2 in Schneider’s insect medium (100 μL at 1 × 106 mL−1) were incubated in 96-well plates with compounds in triplicate (amphotericin B and cycloheximide were used as positive controls, and untreated parasites with 1% DMSO as a negative control) at 26 °C for 48 h.
Resazurin Solution (10 μL) was then added and the plate incubated at 26 °C for 4 h prior to measurement using a fluorescence plate reader (555 - 585 nm). EC50 values were calculated using sigmoidal regression analysis (GraphPad Prism).

[3] = test system: L. amazonensis GFP promastigotes; experiment: mouse model of L. amazonensis infection (ear, IL dosing); format: in vivo, BALB/c mice; settings: 1.2 mg kg^−1 IL twice a week for 4 weeks
Procedure: Consequently, we used IL dosing for this experiment. To enable direct comparison with CF, the same treatment regimen (dose of 1.2 mg kg^−1via IL injection twice a week for 4 weeks starting on DPI) was used for both compounds.
A Weight variation of mice during 28 days of treatment. B Progression of lesion thickness over 28 day treatment period. C Representative photographs of the infected ear for each group taken after completion of treatment, D parasite burden was evaluated by LDA on 36 days post infection. […]
In vivo assays were conducted as previously reported 1. Two month old BALB/c female mice, weighing 20 - 25 g and of approximately the same age were used for the study. For infection of mice, stationary phase GFP L. amazonensis promastigotes were collected, washed and suspended in sterile PBS. A volume of 10 μl of sterile PBS containing 2 x 10^6 parasites was injected into the right ear. […]
Infected ear thicknesses were measured once or twice a week with a caliper gauge, and the lesion sizes were expressed as the difference between the thickness of infected and non-infected ear. On day 41 animals were sacrificed and the fluorescence measured (485 - 528 nm) and parasite load quantified using a limiting dilution assay (LDA).
Data on lesion progression were analysed for statistical significance by using the Dunnett test as part of the one-way ANOVA (GraphPad Prism 8 software). […]

5-HTB2 receptors = molecular target: T2, 5-HTB2 receptors (Homo sapiens, UniProt P41595); experiment: radioligand displacement assay, 5-HT2B; format: binding
T2 construct: purchased Eurofins (contract assay); host or cells: cell membrane homogenates
Procedure: as §1, §2, §3

T2 sequence (P41595 whole entry): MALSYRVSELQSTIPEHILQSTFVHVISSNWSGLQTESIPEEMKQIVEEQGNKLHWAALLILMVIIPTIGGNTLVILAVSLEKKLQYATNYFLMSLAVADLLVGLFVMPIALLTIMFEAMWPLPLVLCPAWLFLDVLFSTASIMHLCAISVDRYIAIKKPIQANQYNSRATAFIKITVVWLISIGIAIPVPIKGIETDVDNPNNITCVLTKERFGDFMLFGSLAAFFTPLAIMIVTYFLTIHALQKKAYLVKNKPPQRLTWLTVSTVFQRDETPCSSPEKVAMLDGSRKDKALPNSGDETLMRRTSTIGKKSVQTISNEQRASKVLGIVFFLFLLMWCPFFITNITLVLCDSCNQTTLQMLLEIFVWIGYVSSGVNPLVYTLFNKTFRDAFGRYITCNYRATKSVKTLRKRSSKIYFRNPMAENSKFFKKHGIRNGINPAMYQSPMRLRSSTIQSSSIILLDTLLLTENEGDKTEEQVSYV
T1 sequence (P35367 whole entry): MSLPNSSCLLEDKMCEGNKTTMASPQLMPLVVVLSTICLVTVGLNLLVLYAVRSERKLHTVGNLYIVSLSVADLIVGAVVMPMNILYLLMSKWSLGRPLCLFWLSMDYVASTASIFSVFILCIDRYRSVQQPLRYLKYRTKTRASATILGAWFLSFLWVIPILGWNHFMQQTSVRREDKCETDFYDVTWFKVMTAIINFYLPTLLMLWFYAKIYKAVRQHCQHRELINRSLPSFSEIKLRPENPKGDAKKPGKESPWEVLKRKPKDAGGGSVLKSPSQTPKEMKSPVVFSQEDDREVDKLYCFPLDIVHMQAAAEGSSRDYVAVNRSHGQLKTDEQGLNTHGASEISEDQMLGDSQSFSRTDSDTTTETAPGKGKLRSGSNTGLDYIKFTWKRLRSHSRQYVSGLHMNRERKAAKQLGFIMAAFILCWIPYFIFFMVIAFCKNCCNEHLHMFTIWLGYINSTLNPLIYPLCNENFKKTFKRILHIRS

With `C[C@H]1CCCN1CCCO[C@H](c1ccccc1)c1ccc(Cl)cc1` [38l] the “effective binding, radioligand displacement, H1” value [1] was > 40%, the “times more active against WT than mutant ΔLCB2 promastigotes” value [2] was “approximately 3 times” and the lesion growth trends ([3]; 35 days post-infection) was “similar”. The “parasitaemia (parasite burden by LDA) versus untreated group” value ([3]; LDA 36 days post infection) was “statistically significant reduction” and the “affinity, radioligand displacement, 5-HTB2” value (5-HTB2 receptors) was “lower affinity”.
